# Measurements: US8629112B2, “Template-fixed peptidomimetics with CXCR7 modulating activity” (priority 2010, dated 2014)
# Square brackets hold non-standard residues; d marks the D form. Peptide text beside a SMILES is read from it. * marks the point of attachment. 1Nal = N[C@@H](Cc1cccc2ccccc12)C(=O)O; 2Nal = N[C@@H](Cc1ccc2ccccc2c1)C(=O)O; d1Nal = N[C@H](Cc1cccc2ccccc12)C(=O)O; Tiq1c(1S) = O=C(O)[C@H]1NCCc2ccccc21; cisHyp = O=C(O)[C@@H]1C[C@H](O)CN1; Tic = O=C(O)[C@@H]1Cc2ccccc2CN1; dOrn = NCCC[C@@H](N)C(=O)O; Aze = O=C(O)[C@@H]1CCN1; Dab = NCC[C@H](N)C(=O)O; Abu = CC[C@H](N)C(=O)O; Bn = c1ccc(C*)cc1
# Target: T1, CXCR7 (Homo sapiens, UniProt P25106)
# T1 construct: host or cells: CHO (PathHunter CHO-CXCR7 β-arrestin cells)
# Assay: CXCR7 β-arrestin recruitment assay (PathHunter CHO-CXCR7, agonistic assay)
# Format: cell-based
# Settings: not given
# Description: Lyophilized peptides were weighed on a Microbalance (Mettler MX5) and dissolved in DMSO to a final concentration of 10 mM unless otherwise stated. Stock solutions were kept at +4° C., and protected from light.
# 2.2 CXCR7 β-Arrestin Recruitment Assay
# The PathHunter CHO-CXCR7 (DiscoverX) assay was performed according to the manufacturer's protocol. In brief, CHO CXCR7 β-arrestin cells were seeded at a density of 5000 cells per well in 40 μl of F12 medium in a 96-half volume well black culture plate and incubated overnight at 37° C. in a humidified atmosphere with 5% CO2. The next day, serial dilutions of PEM compounds have been prepared in DMSO and subsequently diluted in HBSS buffer containing 0.1% BSA.
# For agonistic assay, 10 μl of compound solution or a solution of stromal cell-derived factor-1 (SDF-1) as positive control was added to the cells with a final DMSO concentration of 1% (v/v). The plate was incubated for 90 min at 37° C. in 5% CO2 incubator with gentle shaking (300 rpm) before addition of 40 ul of detection reagent per well. Reaction was developed 90 min at room temperature in the dark with shaking, and chemiluminescence was measured with a Topcount (Perkin Elmer) luminescence counter.
# T1 sequence (P25106 whole entry): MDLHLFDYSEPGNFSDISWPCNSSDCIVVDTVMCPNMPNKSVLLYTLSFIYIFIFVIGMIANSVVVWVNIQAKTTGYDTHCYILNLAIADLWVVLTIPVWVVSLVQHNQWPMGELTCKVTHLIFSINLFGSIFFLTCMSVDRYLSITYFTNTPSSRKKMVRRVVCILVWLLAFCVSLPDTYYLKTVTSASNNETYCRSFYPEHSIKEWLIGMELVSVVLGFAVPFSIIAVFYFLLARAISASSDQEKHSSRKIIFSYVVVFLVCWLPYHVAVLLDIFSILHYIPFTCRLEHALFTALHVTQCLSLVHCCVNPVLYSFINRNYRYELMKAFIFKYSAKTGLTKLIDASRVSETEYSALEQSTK
row,SMILES,EC50 [nM]
1,"N=C(N)NCCC[C@@H]1NC(=O)[C@H](Cc2c[nH]c3ccccc23)NC(=O)[C@@H](Cc2ccccc2)NC(=O)[C@H](Cc2ccc(O)cc2)NC(=O)[C@@H]2Cc3ccccc3CN2C(=O)[C@H]2CCCN2C1=O [compound 5, cyclo(-Tyr-^DPhe-Trp-Arg-^DPro-Tic-)] (cyclo(R[dP][Tic]Y[dF]W))",11.5 ± 9

# Same assay, conditions: CHO CXCR7 β-arrestin cells, agonistic assay, 90 min at 37° C., chemiluminescence; read-out: β-Arrestin EC50
row,SMILES,EC50 [nM]
1,"N=C(N)NCCC[C@@H]1NC(=O)[C@H](Cc2c[nH]c3ccccc23)NC(=O)[C@@H](Cc2c[nH]c3ccccc23)NC(=O)[C@H](Cc2c[nH]c3ccccc23)NC(=O)[C@@H]2Cc3ccccc3CN2C(=O)[C@H]2CCCN2C1=O [Ex. 10, cyclo(-Trp-^DTrp-Trp-Arg-^DPro-Tic-)] (cyclo(R[dP][Tic]W[dW]W))",64.9 ± 113
2,"N=C(N)NCCC[C@@H]1NC(=O)[C@H](Cc2c[nH]cn2)NC(=O)[C@@H](Cc2c[nH]c3ccccc23)NC(=O)[C@H](Cc2c[nH]cn2)NC(=O)[C@@H]2Cc3ccccc3CN2C(=O)[C@H]2CCCN2C1=O [compound 31, cyclo(-His-^DTrp-His-Arg-^DPro-Tic-)] (cyclo(HR[dP][Tic]H[dW]))",226 ± 13.2
3,"N=C(N)NCCC[C@@H]1NC(=O)[C@@H]2Cc3ccccc3CN2C(=O)[C@H]2CCCN2C(=O)[C@H](CCCNC(=N)N)NC(=O)[C@H](Cc2c[nH]c3ccccc23)NC(=O)[C@@H](Cc2c[nH]cn2)NC1=O [compound 36, cyclo(-Arg-^DHis-Trp-Arg-^DPro-Tic-)] (cyclo(R[dH]WR[dP][Tic]))",144 ± 136
4,"N=C(N)NCCC[C@@H]1NC(=O)[C@H](Cc2ccc3ccccc3c2)NC(=O)[C@@H](Cc2ccccc2)NC(=O)[C@H](Cc2c[nH]c3ccccc23)NC(=O)[C@@H]2Cc3ccccc3CN2C(=O)[C@H]2CCCN2C1=O [compound 17, cyclo(-Trp-^DPhe-2Nal-Arg-^DPro-Tic-)] (cyclo([2Nal]R[dP][Tic]W[dF]))",16.9 ± 7.3
5,"N=C(N)NCCC[C@@H]1NC(=O)[C@@H]2Cc3ccccc3CN2C(=O)[C@H]2CCCN2C(=O)[C@H](CCCNC(=N)N)NC(=O)[C@H](Cc2c[nH]cn2)NC(=O)[C@@H](Cc2c[nH]c3ccccc23)NC1=O [compound 35, cyclo(-Arg-^DTrp-His-Arg-^DPro-Tic-)] (cyclo(HR[dP][Tic]R[dW]))",234 ± 132
6,"N=C(N)NCCC[C@@H]1NC(=O)[C@H](Cc2ccc(O)cc2)NC(=O)[C@@H](Cc2c[nH]cn2)NC(=O)[C@H](Cc2cccc3ccccc23)NC(=O)[C@@H]2CCN2C(=O)[C@H]2CCCN2C1=O [compound 45, cyclo(-1Nal-^DHis-Tyr-Arg-^DPro-Azt-)] (cyclo([1Nal][dH]YR[dP][Aze]))",44.4 ± 25.4
7,"N=C(N)NCCC[C@@H]1NC(=O)[C@H](Cc2c[nH]c3ccccc23)NC(=O)[C@@H](Cc2ccccc2)NC(=O)[C@H](Cc2c[nH]c3ccccc23)NC(=O)[C@@H]2C[C@H](OCc3ccccc3)CN2C(=O)[C@H]2CCCN2C1=O [Ex. 27, cyclo(-Trp-^DPhe-Trp-Arg-^DPro-(4S)-Hyp(Bn)-)] (cyclo(R[dP][cisHyp](Bn)W[dF]W))",1.7 ± 1.1
8,"N=C(N)NCCC[C@@H]1NC(=O)[C@H](Cc2c[nH]c3ccccc23)NC(=O)[C@@H](CCCN)NC(=O)[C@H](Cc2c[nH]c3ccccc23)NC(=O)[C@@H]2Cc3ccccc3CN2C(=O)[C@H]2CCCN2C1=O [compound 14, cyclo(-Trp-^DOrn-Trp-Arg-^DPro-Tic-)] (cyclo(R[dP][Tic]W[dOrn]W))",111 ± 75.4
9,"N=C(N)NCCC[C@@H]1NC(=O)[C@H](Cc2c[nH]c3ccccc23)NC(=O)[C@@H](Cc2ccccc2)NC(=O)[C@H](Cc2c[nH]c3ccccc23)NC(=O)[C@@H]2c3ccccc3CCN2C(=O)[C@H]2CCCN2C1=O [Ex. 25, cyclo(-Trp-^DPhe-Trp-Arg-^DPro-Tiq-)] (cyclo(R[dP][Tiq1c(1S)]W[dF]W))",0.4
10,"N=C(N)NCCC[C@@H]1NC(=O)[C@H](Cc2ccccc2)NC(=O)[C@@H](Cc2ccccc2)NC(=O)[C@H](Cc2c[nH]c3ccccc23)NC(=O)[C@@H]2Cc3ccccc3CN2C(=O)[C@H]2CCCN2C1=O [compound 15, cyclo(-Trp-^DPhe-Phe-Arg-^DPro-Tic-)] (cyclo(FR[dP][Tic]W[dF]))",75.7 ± 41.5
11,"CC[C@H](C)[C@@H]1NC(=O)[C@@H]2Cc3ccccc3CN2C(=O)[C@H]2CCCN2C(=O)[C@H](CCCNC(=N)N)NC(=O)[C@H](Cc2c[nH]c3ccccc23)NC(=O)[C@@H](Cc2c[nH]cn2)NC1=O [compound 32, cyclo(-Ile-^DHis-Trp-Arg-^DPro-Tic-)] (cyclo(I[dH]WR[dP][Tic]))",70.8 ± 14.3
12,"N=C(N)NCCC[C@@H]1NC(=O)[C@H](Cc2c[nH]c3ccccc23)NC(=O)[C@@H](Cc2ccccc2)NC(=O)[C@H](Cc2c[nH]c3ccccc23)NC(=O)[C@@H]2Cc3ccccc3CN2C(=O)[C@H]2CCCN2C1=O [compound 9, cyclo(-Trp-^DPhe-Trp-Arg-^DPro-Tic-)] (cyclo(R[dP][Tic]W[dF]W))",4.8 ± 4.4
13,"N=C(N)NCCC[C@@H]1NC(=O)[C@H](Cc2c[nH]c3ccccc23)NC(=O)[C@@H](Cc2c[nH]cn2)NC(=O)[C@H](Cc2c[nH]c3ccccc23)NC(=O)[C@@H]2CCN2C(=O)[C@H]2CCCN2C1=O [compound 48, cyclo(-Trp-^DHis-Trp-Arg-^DPro-Azt-)] (cyclo([Aze]W[dH]WR[dP]))",342 ± 46.8
14,"N=C(N)NCCC[C@@H]1NC(=O)[C@H](Cc2ccc(O)cc2)NC(=O)[C@@H](Cc2ccccc2)NC(=O)[C@H](Cc2c[nH]c3ccccc23)NC(=O)[C@@H]2Cc3ccccc3CN2C(=O)[C@H]2CCCN2C1=O [compound 16, cyclo(-Trp-^DPhe-Tyr-Arg-^DPro-Tic-)] (cyclo(R[dP][Tic]W[dF]Y))",326 ± 99.8
15,"N=C(N)NCCC[C@@H]1NC(=O)[C@H](Cc2c[nH]c3ccccc23)NC(=O)[C@@H](Cc2ccccc2)NC(=O)[C@H](Cc2ccccc2)NC(=O)[C@@H]2Cc3ccccc3CN2C(=O)[C@H]2CCCN2C1=O [Ex. 2, cyclo(-Phe-^DPhe-Trp-Arg-^DPro-Tic-)] (cyclo(F[dF]WR[dP][Tic]))",22.5 ± 13.7
16,"CC[C@H](C)[C@@H]1NC(=O)[C@@H](CCCNC(=N)N)NC(=O)[C@H](Cc2cccc3ccccc23)NC(=O)[C@@H]2CCN2C(=O)[C@H]2CCCN2C(=O)[C@H](CCCNC(=N)N)NC1=O [compound 43, cyclo(-1Nal-^DArg-Ile-Arg-^DPro-Azt-)] (cyclo([1Nal][dR]IR[dP][Aze]))",41.2 ± 8.3
17,"NCC[C@@H]1NC(=O)[C@H](Cc2c[nH]c3ccccc23)NC(=O)[C@@H](Cc2ccccc2)NC(=O)[C@H](Cc2c[nH]c3ccccc23)NC(=O)[C@@H]2Cc3ccccc3CN2C(=O)[C@H]2CCCN2C1=O [compound 22, cyclo(-Trp-^DPhe-Trp-Dab-^DPro-Tic-)] (cyclo([Dab][dP][Tic]W[dF]W))",12.6 ± 1.6
18,"CC[C@@H]1NC(=O)[C@@H]2Cc3ccccc3CN2C(=O)[C@H]2CCCN2C(=O)[C@H](Cc2c[nH]c3ccccc23)NC(=O)[C@H](CCCNC(=N)N)NC(=O)[C@@H](CCCNC(=N)N)NC1=O [compound 30, cyclo(-Abu-^DArg-Arg-Trp-^DPro-Tic-)] (cyclo([Abu][dR]RW[dP][Tic]))",97.5 ± 6.3
19,"N=C(N)NCCC[C@@H]1NC(=O)[C@H](Cc2c[nH]cn2)NC(=O)[C@@H](CCCNC(=N)N)NC(=O)[C@H](Cc2c[nH]c3ccccc23)NC(=O)[C@@H]2Cc3ccccc3CN2C(=O)[C@H]2CCCN2C1=O [compound 37, cyclo(-Trp-^DArg-His-Arg-^DPro-Tic-)] (cyclo(HR[dP][Tic]W[dR]))",348 ± 55.6
20,"O=C1N[C@@H](Cc2c[nH]c3ccccc23)C(=O)N2CCC[C@@H]2C(=O)N2Cc3ccccc3C[C@H]2C(=O)N[C@@H](Cc2c[nH]cn2)C(=O)N[C@H](Cc2cccc3ccccc23)C(=O)N[C@H]1Cc1c[nH]cn1 [compound 39, cyclo(-His-^D1Nal-His-Trp-^DPro-Tic-)] (cyclo(HW[dP][Tic]H[d1Nal]))",269 ± 80.1
21,"N=C(N)NCCC[C@H]1NC(=O)[C@H](Cc2c[nH]c3ccccc23)NC(=O)[C@@H]2Cc3ccccc3CN2C(=O)[C@H]2CCCN2C(=O)[C@H](Cc2c[nH]c3ccccc23)NC(=O)[C@H](Cc2c[nH]cn2)NC1=O [compound 38, cyclo(-Trp-^DArg-His-Trp-^DPro-Tic-)] (cyclo(HW[dP][Tic]W[dR]))",217 ± 12.5
22,"CC[C@H](C)[C@@H]1NC(=O)[C@H](Cc2c[nH]c3ccccc23)NC(=O)[C@@H](CCCNC(=N)N)NC(=O)[C@H](Cc2c[nH]c3ccccc23)NC(=O)[C@@H]2CCN2C(=O)[C@H]2CCCN2C1=O [compound 46, cyclo(-Trp-^DArg-Trp-Ile-^DPro-Azt-)] (cyclo([Aze]W[dR]WI[dP]))",208 ± 50.2
